This is an account of results in patent US10822345B2 (4SC AG, priority 2015, dated 2020).

In general, IC50 refers to the point on the concentration scale where inhibition reaches its midpoint. Read a high IC50 as lower potency.

Where only a bound is given, the exact number is not on record here.

For one test, the target named is Kv1.3 (Homo sapiens (Human), UniProt P22001). Briefly: Patch-clamp assay for inhibitory activity on Kv1.3 (whole cell recording). Type of test: cell-based. To be noted: n≥2 per concentration, three or more concentrations. The protocol: Patch-Clamp Assay for Inhibitory Activity on Kv1.3
Kv1.3, sequence (P22001 whole entry): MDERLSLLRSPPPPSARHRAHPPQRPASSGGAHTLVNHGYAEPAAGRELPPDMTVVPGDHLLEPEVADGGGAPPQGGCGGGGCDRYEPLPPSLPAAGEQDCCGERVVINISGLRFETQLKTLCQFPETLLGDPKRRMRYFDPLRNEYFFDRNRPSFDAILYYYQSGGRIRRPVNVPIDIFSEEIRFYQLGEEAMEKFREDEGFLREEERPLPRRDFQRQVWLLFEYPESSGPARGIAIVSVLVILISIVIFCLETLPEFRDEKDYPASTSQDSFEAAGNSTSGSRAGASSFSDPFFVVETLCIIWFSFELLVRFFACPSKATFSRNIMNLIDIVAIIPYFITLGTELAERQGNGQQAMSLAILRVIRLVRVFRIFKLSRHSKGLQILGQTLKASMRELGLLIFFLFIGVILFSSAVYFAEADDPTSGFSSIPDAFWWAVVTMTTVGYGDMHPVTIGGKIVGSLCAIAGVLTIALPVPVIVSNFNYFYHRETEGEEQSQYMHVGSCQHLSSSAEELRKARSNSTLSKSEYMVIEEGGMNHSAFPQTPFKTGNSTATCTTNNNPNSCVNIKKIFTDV
For a description of a Kv1.3 patch-clamp assay, see Grissmer et al., Mol. Pharmacol. 1994, 45, 1227; whole cell patch-clamp recording was performed with n≥2 individual experiments at each compound concentration using different cells. Three or more different concentrations were determined per dose response curve.
On the technique in general: In patch-clamp work, channel activity is measured electrically.
The molecule `Cc1c(-c2ccccc2)c2cc3c(C)coc3c(C)c2oc1=O` [Example 9, 3,6,9-trimethyl-5-phenyl-7H-furo[3,2-g]chromen-7-one] had an IC50 not above 0.5 µM.
With `Cc1c(-c2ccccc2Cl)c2cc3c(C)coc3c(C)c2n(C)c1=O` [Example 60, 5-(2-chlorophenyl)-3,6,8,9-tetramethylfuro[3,2-g]quinolin-7(8H)-one], the IC50 is not above 0.5 µM.
As for `COc1ncccc1-c1c(C)c(=O)oc2c(C)c3occ(C)c3cc12` [Example 62, 5-(2-methoxypyridin-3-yl)-3,6,9-trimethyl-7H-furo[3,2-g]chromen-7-one], the IC50 was 0.501 to 1.5 µM.
Take `Cc1c(-c2ccccc2F)c2cc3c(C)coc3c(C)c2oc1=O` [Example 5, 5-(2-fluorophenyl)-3,6,9-trimethyl-7H-furo[3,2-g]chromen-7-one]: the IC50 is not above 0.5 µM.
In turn, `CCOc1ccccc1-c1c(C)c(=O)oc2c(C)c3occ(C)c3cc12` [Example 10, 5-(2-ethoxyphenyl)-3,6,9-trimethyl-7H-furo[3,2-g]chromen-7-one] had an IC50 not above 0.5 µM.
For `COc1ccccc1-c1c(C)c(=O)oc2c(C)c3occ(C)c3cc12` [Example 7, 5-(2-methoxyphenyl)-3,6,9-trimethyl-7H-furo[3,2-g]chromen-7-one], the IC50 is not above 0.5 µM.
`Cc1c(-c2ccccc2Cl)c2cc3c(C)coc3c(C)c2[nH]c1=O` [Example 40, 5-(2-chlorophenyl)-3,6,9-trimethylfuro[3,2-g]quinolin-7(8H)-one] came in with an IC50 not above 0.5 µM.
Still for that read-out and setting: with `CCc1coc2c(C)c3oc(=O)c(C)c(-c4ccccc4)c3cc12` [Example 16, 3-ethyl-6,9-dimethyl-5-phenyl-7H-furo[3,2-g]chromen-7-one] the figure was not above 0.5 µM; with `Cc1c2oc(=O)cc(-c3ccccc3)c2cc2c(C3CC3)coc12` [Example 41, 3-cyclopropyl-9-methyl-5-phenyl-7H-furo[3,2-g]chromen-7-one], not above 0.5 µM; with `Cc1coc2c(C)c3oc(=O)cc(-c4ccccc4F)c3cc12` [Example 8, 5-(2-fluorophenyl)-3,9-dimethyl-7H-furo[3,2-g]chromen-7-one], not above 0.5 µM.
The same measure, in the same setting: to `COc1ccccc1-c1cc(=O)oc2c(C)c3occ(C)c3cc12` [Example 1, 5-(2-methoxyphenyl)-3,9-dimethyl-7H-furo[3,2-g]chromen-7-one] belongs not above 0.5 µM; to `Cc1c(-c2cccnc2)c2cc3c(C)coc3c(C)c2oc1=O` [Example 53, 3,6,9-trimethyl-5-(pyridin-3-yl)-7H-furo[3,2-g]chromen-7-one], not above 0.5 µM.
Same read-out and setting: with `Cc1c(-c2ccccc2)c2cc3c(C)noc3c(C)c2[nH]c1=O` [Example 36, 3,6,9-trimethyl-5-phenylisoxazolo[4,5-g]quinolin-7(8H)-one] the figure was not above 0.5 µM; with `Cc1c(-c2ccccc2)c2cc3c(C)c(C#N)oc3c(C)c2oc1=O` [Example 45], 1.5 to 3 µM.
Regarding `Cc1c(-c2ccccc2F)c2cc3c(C)coc3c(C)c2n(C)c1=O` [Example 61, 5-(2-fluorophenyl)-3,6,8,9-tetramethylfuro[3,2-g]quinolin-7(8H)-one], the IC50 was not above 0.5 µM.
On the same count and under the same terms, with `Cc1c(-c2ccccc2F)c2cc3c(C)coc3c(C)c2[nH]c1=O` [Example 30, 5-(2-fluorophenyl)-3,6,9-trimethylfuro[3,2-g]quinolin-7(8H)-one] the figure was not above 0.5 µM.
On the same count and under the same terms, to `Cc1coc2c(C)c3[nH]c(=O)c(Br)c(-c4ccccc4)c3cc12` [Example 26, 6-bromo-3,9-dimethyl-5-phenylfuro[3,2-g]quinolin-7(8H)-one] belongs not above 0.5 µM; to `Cc1c(-c2ccccc2)c2cc3c(C)coc3nc2oc1=O` [Example 25, 3,6-dimethyl-5-phenyl-7H-furo[2,3-b]pyrano[3,2-e]pyridin-7-one], not above 0.5 µM.
`Cc1coc2c(C)c3[nH]c(=O)c(Br)c(-c4ccccc4F)c3cc12` [Example 27, 6-bromo-5-(2-fluorophenyl)-3,9-dimethylfuro[3,2-g]quinolin-7(8H)-one] showed an IC50 of 0.501 to 1.5 µM.
For `Cc1coc2c(C)c3c(cc12)c(-c1ccccc1)c(Br)c(=O)n3C` [Example 33, 6-bromo-3,8,9-trimethyl-5-phenylfuro[3,2-g]quinolin-7(8H)-one], the IC50 is not above 0.5 µM.
In turn, `Cc1c(-c2ccccc2)c2cc3c(C)coc3c(C)c2n(C)c1=O` [Example 34, 3,6,8,9-tetramethyl-5-phenylfuro[3,2-g]quinolin-7(8H)-one] came in with an IC50 not above 0.5 µM.
Still for that read-out and setting: with `Cc1c(-c2ccccc2)c2cc3c(C)csc3c(C)c2oc1=O` [Example 43, 3,6,9-trimethyl-4-phenyl-2H-thieno[3,2-g]chromen-2-one] the figure was not above 0.5 µM.
Consider `Cc1c(-c2ccccc2)c2cc3c(C)coc3c(C)c2[nH]c1=O` [Example 31, 3,6,9-trimethyl-5-phenylfuro[3,2-g]quinolin-7(8H)-one], for which the IC50 was not above 0.5 µM.
Molecule `Cc1c(-c2ccccc2Cl)c2cc3c(C)coc3c(C)c2oc1=O` [Example 11, 5-(2-chlorophenyl)-3,6,9-trimethyl-7H-furo[3,2-g]chromen-7-one] came in with an IC50 not above 0.5 µM.
Consider `Cc1c(-c2ccccc2)c2cc3c(C)coc3nc2n(C)c1=O` [Example 49, 3,6,8-trimethyl-5-phenylfuro[2,3-b][1.8]naphthyridin-7(8H)-one], for which the IC50 is not above 0.5 µM.
In the case of `Cc1c(-c2cccnc2)c2cc3c(C)coc3c(C)c2[nH]c1=O` [Example 54, 3,6,9-trimethyl-5-(pyridin-3-yl)furo[3,2-g]quinolin-7(8H)-one], the IC50 was not above 0.5 µM.

Another test has as its system female Dark Agouti rats. Nature of the test: Pristane-induced arthritis (PIA) model. Type of test: in vivo, rat. To be noted: MTX 0.05 mg/kg i.p., sid, DAY16 to DAY30; maximum AI=16; controls AI around 14; p=0.001. How it is done:
Pristane-Induced Arthritis (PIA) Model
Arthritis was induced in female Dark Agouti rats by intradermal injection of 150 μL/rat pristane into the base of the tail on DAY0, according to Vingsbo et al., Am. J. Pathol. 1996, 149, 1675. Compound treatment was started on DAY16 and continued until DAY30, dosing Example 53 at 60 mg/kg, p.o., sid, and Example 34 at 45 mg/kg, p.o., bid, each in a lipophilic formulation. As a positive control, methotrexate (MTX) was dosed i.p., sid, with 0.05 mg/kg, also starting DAY16. Arthritis development was monitored daily by a macroscopic scoring system for the four limbs ranging from 0 to 4 (0=no visible effects of arthritis; 1=edema and/or erythema of one digit; 2=edema and/or erythema of two joints; 3=edema and/or erythema of more than two joints; 4=severe arthritis of the entire paw and digits, associated with ankylosis and deformity of the paw.), resulting in an Arthritic Index (AI) reflecting the sum of scores of all 4 limbs per rat (maximum AI=16).
Disease induction in saline-treated and vehicle-treated control animals reached a maximum of AI around 14.
With `CN(Cc1cnc2nc(N)nc(N)c2n1)c1ccc(C(=O)N[C@@H](CCC(=O)O)C(=O)O)cc1` [MTX, methotrexate], the “Arthritic Index (AI)” value was approximately 8.7.
